Converted amounts (≈) assume the structure as drawn. Blank lines part the entries; values can stand above or below the compound they belong to.
Assays:
Test in all cases: ≥ marks a high value that may be exact or a test limit, other limits are often not marked, values filed in µg/mL are converted to µM
[1] = system: Mycobacterium tuberculosis H37Rv
[2] = system: Mycobacterium tuberculosis CSU87
[3] = system: Staphylococcus aureus CIP 53.156
[4] = system: Escherichia coli CIP 76.24
[5] = system: Candida albicans KCTC 7270
[6] = system: Proteus vulgaris KCTC 2433
[7] = system: Listeria monocytogenes KCTC 3710
[8] = system: Aspergillus fumigatus KCTC 6145
[9] = system: Pseudomonas aeruginosa ATCC 15692
[10] = system: Aspergillus flavus KCTC 6905
[11] = system: Aspergillus parasiticus KCTC 6598
[12] = system: Bacillus subtilis KCTC 1998
[13] = system: Salmonella typhimurium KCTC 1926
[14] = system: Staphylococcus epidermidis ATCC 12228
[15] = system: Escherichia coli ATCC 25922
[16] = system: Staphylococcus aureus ATCC 25923
[17] = system: Trichosporon beigelii KCTC 7707
[18] = system: Aspergillus awamori KCTC 6915
Klebsiella pneumoniae = system: Klebsiella pneumoniae
[19] = system: Bacillus subtilis BGSC 1A1
[20] = system: Pseudomonas aeruginosa ATCC 27853
Streptococcus agalactiae = system: Streptococcus agalactiae
[21] = system: Streptococcus pneumoniae ATCC 49619
[22] = system: Mycobacterium tuberculosis mc2-6020
Streptococcus pyogenes = system: Streptococcus pyogenes
[23] = system: Mycobacterium tuberculosis mc2-6230
Streptococcus mutans = system: Streptococcus mutans
Pseudomonas aeruginosa = system: Pseudomonas aeruginosa
Salmonella typhimurium = system: Salmonella typhimurium
Escherichia coli HB101 = system: Escherichia coli HB101
Staphylococcus aureus = system: Staphylococcus aureus
Bacillus subtilis = system: Bacillus subtilis
Neurospora crassa = system: Neurospora crassa
Micrococcus luteus = system: Micrococcus luteus
Aerococcus viridans = system: Aerococcus viridans
Ascochyta pisi = system: Ascochyta pisi
Fusarium culmorum = system: Fusarium culmorum
Trichoderma viride = system: Trichoderma viride
Bacillus megaterium = system: Bacillus megaterium
Pediococcus acidilactici = system: Pediococcus acidilactici
Fusarium haematococcum = system: Fusarium haematococcum
Botrytis cinerea = system: Botrytis cinerea
Alternaria brassicicola = system: Alternaria brassicicola
[24] = system: Staphylococcus aureus 1550
[25] = system: Pseudomonas aeruginosa ATCC 9027
[26] = system: Escherichia coli ATCC 2592
[27] = system: Micrococcus luteus ATCC 9341
[28] = system: Staphylococcus aureus ATCC 6538
[29] = system: Candida albicans ATCC 36232

SMILES: CC[C@H](C)[C@H](NC(=O)[C@H](CCCCN)NC(=O)[C@H](CCCCN)NC(=O)[C@H](C)NC(=O)[C@H](CC(C)C)NC(=O)[C@H](CCCCN)NC(=O)[C@H](CCCCN)NC(=O)[C@H](CC(C)C)NC(=O)[C@H](CCCN=C(N)N)NC(=O)[C@H](CCCCN)NC(=O)[C@@H](N)Cc1ccccc1)C(=O)N[C@@H](Cc1c[nH]c2ccccc12)C(=O)N[C@@H](CC(N)=O)C(=O)N[C@@H](Cc1c[nH]c2ccccc12)C(=O)N[C@@H](CCCCN)C(N)=O [FKRLKKLAKKIWNWK]
MIC [5]: 8 µM (≈ 15.9 µg/mL)
MIC [6]: 4 µM (≈ 7.95 µg/mL)
MIC [7]: 2 µM (≈ 3.97 µg/mL)
MIC [8]: 8 µM (≈ 15.9 µg/mL)
MIC [9]: 2 µM (≈ 3.97 µg/mL)
MIC [10]: 16 µM (≈ 31.8 µg/mL)
MIC [11]: 8 µM (≈ 15.9 µg/mL)
MIC [12]: 4 µM (≈ 7.95 µg/mL)
MIC [13]: 2 µM (≈ 3.97 µg/mL)
MIC [14]: 2.83 µM (≈ 5.62 µg/mL)
MIC [15]: 4 µM (≈ 7.95 µg/mL)
MIC [16]: 4 µM (≈ 7.95 µg/mL)
MIC [17]: 16 µM (≈ 31.8 µg/mL)
MIC [18]: 16 µM (≈ 31.8 µg/mL)

SMILES: CC[C@H](C)[C@H](N)C(=O)N[C@@H](CC(C)C)C(=O)N[C@@H](CO)C(=O)N[C@@H](CC(C)C)C(=O)N[C@@H](CCCN=C(N)N)C(=O)N[C@@H](Cc1c[nH]c2ccccc12)C(=O)N[C@@H](CCCN=C(N)N)C(=O)N[C@@H](Cc1c[nH]c2ccccc12)C(=O)N[C@@H](Cc1c[nH]c2ccccc12)C(=O)N[C@@H](CCCCN)C(=O)N[C@@H](Cc1c[nH]c2ccccc12)C(=O)N[C@@H](CCCCN)C(=O)N[C@@H](CCCCN)C(=O)O [ILSLRWRWWKWKK]
MIC (Klebsiella pneumoniae): 32 µM (≈ 60.4 µg/mL)
MIC [19]: 2 µM (≈ 3.77 µg/mL)
MIC [20]: 32 µM (≈ 60.4 µg/mL)
MIC (Streptococcus agalactiae): 4 µM (≈ 7.55 µg/mL)
MIC [21]: ≥ 32 µM
MIC [22]: 4 µM (≈ 7.55 µg/mL)
MIC (Streptococcus pyogenes): 4 µM (≈ 7.55 µg/mL)
MIC [15]: 8 µM (≈ 15.1 µg/mL)
MIC [16]: 68 µM (≈ 128 µg/mL)
MIC [23]: ≥ 32 µM
MIC (Streptococcus mutans): 4 µM (≈ 7.55 µg/mL)

SMILES: CC[C@H](C)[C@H](NC(=O)[C@@H](NC(=O)[C@@H]1CCCN1C(=O)[C@@H](NC(=O)[C@@H]1CCCN1C(=O)[C@H](CCCCN)NC(=O)[C@H](CCCCN)NC(=O)[C@H](CO)NC(=O)CN)C(C)C)[C@@H](C)CC)C(=O)N[C@@H](Cc1ccc(O)cc1)C(=O)N[C@H]1CSSC[C@@H](C(=O)N[C@@H](CCC(N)=O)C(=O)N[C@@H](CCCN=C(N)N)C(=O)N[C@@H](CCSC)C(=O)O)NC(=O)[C@H](CCCCN)NC(=O)CNC(=O)[C@H](CCCN=C(N)N)NC(=O)[C@H](CCCN=C(N)N)NC(=O)[C@H](CC(N)=O)NC1=O [GSKKPVPIIYCNRRGKCQRM]
MIC (Pseudomonas aeruginosa): 2.6 µM (≈ 6.07 µg/mL)
MIC (Salmonella typhimurium): 1.3 µM (≈ 3.03 µg/mL)
MIC (Escherichia coli HB101): 0.64 µM (≈ 1.49 µg/mL)
MIC (Staphylococcus aureus): 10.4 µM (≈ 24.3 µg/mL)
MIC (Bacillus subtilis): 5.2 µM (≈ 12.1 µg/mL)

SMILES: CC[C@H](C)[C@H](NC(=O)[C@@H](NC(=O)[C@@H]1CCCN1C(=O)[C@@H](NC(=O)[C@@H]1CCCN1C(=O)[C@H](CCCCN)NC(=O)[C@H](CCCCN)NC(=O)[C@H](CO)NC(=O)CN)C(C)C)[C@@H](C)CC)C(=O)N[C@@H](Cc1ccc(O)cc1)C(=O)N[C@H]1CSSC[C@@H](C(=O)O)NC(=O)[C@H](CCCCN)NC(=O)CNC(=O)[C@H]([C@@H](C)O)NC(=O)[C@H](CCCN=C(N)N)NC(=O)[C@H](CCCN=C(N)N)NC(=O)[C@H](CC(N)=O)NC1=O [GSKKPVPIIYCNRRTGKC]
MIC (Neurospora crassa): 14.1 µM (≈ 28.5 µg/mL)
MIC (Micrococcus luteus): 7.07 µM (≈ 14.3 µg/mL)
MIC (Aerococcus viridans): 3.54 µM (≈ 7.14 µg/mL)
MIC (Ascochyta pisi): 28.3 µM (≈ 57.1 µg/mL)
MIC (Fusarium culmorum): 14.1 µM (≈ 28.5 µg/mL)
MIC (Trichoderma viride): 28.3 µM (≈ 57.1 µg/mL)
MIC (Bacillus megaterium): 7.07 µM (≈ 14.3 µg/mL)
MIC (Pediococcus acidilactici): 28.3 µM (≈ 57.1 µg/mL)
MIC (Fusarium haematococcum): 7.07 µM (≈ 14.3 µg/mL)
MIC (Botrytis cinerea): 7.07 µM (≈ 14.3 µg/mL)
MIC (Alternaria brassicicola): 7.07 µM (≈ 14.3 µg/mL)

SMILES: CC(C)[C@H](NC(=O)[C@H](CCCCN)NC(=O)[C@H](Cc1ccccc1)NC(=O)[C@@H](NC(=O)[C@@H](NC(=O)[C@H](CCCCN)NC(=O)[C@@H](N)Cc1cnc[nH]1)C(C)C)C(C)C)C(=O)N[C@@H](CCCCN)C(=O)N[C@@H](Cc1ccccc1)C(=O)N[C@@H](Cc1cnc[nH]1)C(=O)O [HKVVFKVKFH]
MIC [24]: ≥ 49.7 µM
MIC [25]: 8.67 µM (≈ 11 µg/mL)
MIC [26]: 15 µM (≈ 19 µg/mL)
MIC [27]: 7.88 µM (≈ 10 µg/mL)
MIC [28]: 12.6 µM (≈ 16 µg/mL)
MIC [29]: ≥ 78.8 µM

Other lines, results leading:

MIC [1]: ≥ 449 µM
MIC [2]: ≥ 112 µM
SMILES: CSCC[C@H](NC(=O)[C@H](CCCCN)NC(=O)[C@H](CCCCN)NC(=O)[C@H](CC(C)C)NC(=O)[C@H](CC(C)C)NC(=O)[C@H](CCCCN)NC(=O)[C@H](CCCCN)NC(=O)[C@H](CC(C)C)NC(=O)[C@@H](N)CC(C)C)C(N)=O [LLKKLLKKM]

MIC [3]: 9 µM (≈ 16.6 µg/mL)
MIC [4]: ≥ 49 µM
SMILES: CC[C@H](C)[C@H](N)C(=O)N1CCC[C@H]1C(=O)N[C@@H](Cc1c[nH]c2ccccc12)C(=O)NCC(=O)N[C@@H](CCCCN)C(=O)N[C@H](C(=O)N[C@@H](CCCCN)C(=O)N[C@@H](CC(=O)O)C(=O)N[C@@H](Cc1ccccc1)C(=O)N[C@@H](CC(C)C)C(=O)N[C@H](C(=O)NCC(=O)NCC(=O)N[C@@H](CCSC)C(=O)N[C@@H](CCCCN)C(=O)N[C@@H](C)C(=O)N[C@H](C(N)=O)C(C)C)C(C)C)C(C)C [IPWGKVKDFLVGGMKAV]
